# Measurements published in US7202239B2, “Cyclohexylphenyl carboxamides tocolytic oxytocin receptor antagonists” (Wyeth, priority 2001, dated 2007).
# pIC50: −log10 of the molar value.
# Target: T1, human oxytocin receptor (Homo sapiens, UniProt P30559)
# T1 sequence (P30559 1-389): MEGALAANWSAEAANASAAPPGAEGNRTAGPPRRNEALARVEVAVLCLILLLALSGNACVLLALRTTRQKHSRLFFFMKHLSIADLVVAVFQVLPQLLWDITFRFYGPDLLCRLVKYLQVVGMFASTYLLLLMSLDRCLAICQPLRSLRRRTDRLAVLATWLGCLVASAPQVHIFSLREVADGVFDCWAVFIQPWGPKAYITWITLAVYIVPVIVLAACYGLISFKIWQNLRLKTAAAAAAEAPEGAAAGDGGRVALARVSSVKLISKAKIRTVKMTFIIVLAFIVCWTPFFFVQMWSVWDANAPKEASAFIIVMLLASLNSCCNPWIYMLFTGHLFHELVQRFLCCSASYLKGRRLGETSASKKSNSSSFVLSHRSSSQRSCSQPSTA
# Assay: Oxytocin binding in CHO cell membranes expressing human oxytocin receptors
# Conditions: 100 nM, [3H]oxytocin
# Description: Oxytocin Binding in Chinese Hamster Ovary Cell Membranes Expressing Human Oxytocin Receptors
# Chinese Hamster Ovary (CHO) cells stably transfected with the human oxytocin receptor (cf. Tanizawa et al., U.S. Pat. No. 5,466,584 (1995) to Rohto Pharmaceutical Co. Ltd., Osaka, Japan) were obtained from M. Thibonnier, Case Western Reserve University School of Medicine, Cleveland, Ohio. A. Passaging and Amplification of Cells: CHO cells transfected with the human oxytocin receptors obtained from M. Thibonnier (pcDNA3.1 vector) are allowed to grow to confluency (approx. >90%) in T-150 flasks under sterile conditions, in a cell culture medium of F-12 Nutrient Mixture (HAM) with L-glutamine (Gibco Cat. # 11765-054) containing 15 mM HEPES (Gibco Cat. # 15630-080), 1% antibiotic/antimycotic (add 5 mL 100×, Gibco Cat. # 15240-062 per 500 mL F-12), 400 μg/mL of Geneticin (add 4 mL of 50 mg/mL per 500 mL F-12) and 10% Fetal Bovine Serum (Qualified, heat inactivated, Gibco Cat. # 16140-063). The medium is removed by aspiration and the cells are washed with 10 mL of Hank's Balanced Salt solution (Gibco Cat. # 14175-095). The salt solution is removed by aspiration and the cells trypsinized with 5 mL of trypsin-EDTA (0.05% trypsin, 0.53 mM EDTA-4Na, Gibco Cat. # 25300-070) for 1 min The trypsin is removed by aspiration and the cells dislodged by tapping. Cell Culture medium (e.g. 30 mL for 1:30 split) is immediately added and mixed well to inactivate trypsin. 1 mL of detached cells is added to new culture flasks containing fresh Cell Culture medium (e.g. into 25 mL per T-150 flask), and mixed gently. The cells are incubated at 37° C. in 5% CO2. The medium is changed at 3 to 4 days interval (or as appropriate). The cells grow to confluency (approx. >75%–95%) within 7–8 days. All steps are done under sterile conditions. B. Membrane Preparation: The cells are washed twice gently with Hank's Balanced Salt solution (eg, use 10 mL per T-150 flask). The excess solution is removed and the cells bathed for 15–30 min. in an enzyme-free Cell Dissociation Buffer (eg, use 8 mL Hank's Based, Gibco Cat. # 13150-016 per T-150 flask) until cells are loosened. The contents are transferred to centrifuge tubes (50 mL size) kept in ice bath. All subsequent steps are done at 4° C. The tubes are centrifuged at 300×g for 15 min (1380 rpm on SORVAL, Model RT6000D, using rotor for 50 mL tubes). The supernatant is discarded and the cells suspended in homogenizing buffer (10 mM Tris-HCl containing 0.25 M sucrose and 1 mM EDTA, pH 7.4) ensuring that the volume of the buffer is about ten times the volume of the cell pellet. The cells are pooled into a centrifuge tube (50 mL) and homogenized with a Polytron at setting 6 for 10 sec. The homogenate is transferred into a Potter-Elvjehm homogenizer and homogenized with 3 strokes. The homogenate is centrifuged at 1500×g for 10 min at 4° C. (3100 rpm using SORVAL, model RT6000D, using rotor for 50 mL tubes). The pellet is discarded. The supernatant is centrifuged at 100,000×g for 60 min. at 4° C. (Beckman L8-80M ultracentrifuge; spin at 37,500 rpm with rotor type 70 Ti for 50 mL tubes; 38,000 rpm with type 80Ti for 15 mL tubes; or 35,800 rpm with rotor type 45Ti). The supernantant is discarded and the pellet suspended in 3 to 4 mL of Tris buffer (50 mM TRIS-HCl, pH 7.4). The protein content is estimated by the Bradford or Lowry method. The volume of the membrane suspension is adjusted with the membrane buffer (50 mM Tris-HCl containing 0.1% BSA and 0.1 mM PMSF) to give 3.0 mg/mL (or as appropriate) of protein. The membranes are aliquoted and stored at −70° C. C. Radioligand Binding Assay: In wells of a 96-well format microtiter plate, is added 90, 110 or 130 μL (to make up a final volume of 200 μL) of assay buffer containing 50 mM of Tris-HCl (pH 7.4), […], 1 mg % aprotinin, 1 mg % leupeptin, 2 mg % 1,10-phenanthroline, 10 mg % trypsin inhibitor, and 0.1 mM PMSF. […]
row,OT % inhibition at 100 nM,SMILES
1,34%,"O=C(O)c1ccc2n1Cc1ccccc1N(C(=O)c1ccc(C3CCCCC3)cc1)C2 [Example 22, 10-(4-Cyclohexyl-benzoyl)-10,11-dihydro-5H-pyrrolo[2,1 c][1,4]benzodiazepine-3-carboxylic acid]"
2,89%,"O=C(C(=O)N1CCC(N2CCCCC2)CC1)c1ccc2n1Cc1ccccc1N(C(=O)c1ccc(C3CCCCC3)cc1)C2 [Example 31, 1-[1.4′]Bipiperidinyl-1′-yl-2-[10-(4-cyclohexyl-benzoyl)-10,11-dihydro-5H-pyrrolo[2,1-c][1,4]benzodiazepin-3-yl]-ethane-1,2-dione]"
3,87%,"CN1CCN(C(=O)C(=O)c2ccc3n2Cc2ccccc2N(C(=O)c2ccc(C4CCCCC4)cc2)C3)CC1 [Example 32, 1-[10-(4-Cyclohexyl-benzoyl)-10,11-dihydro-5H-pyrrolo[2,1-c][1,4]benzodiazepin-3-yl]-2-(4-methyl-1-piperazin-1-yl)-1,2-ethane-1,2-dione]"

# Same assay, conditions: 100 nM, [3H]oxytocin, read-out: OT % inhibition at 100 nM
row,SMILES,inhibition at 0.1 µM
1,"CN(C)/C=C/C(=O)c1ccc2n1Cc1ccccc1N(C(=O)c1ccc(C3CCCCC3)cc1)C2 [Example 20, (E)-1-[10-(4-Cyclohexyl-benzoyl)-10,11-dihydro-5H-pyrrolo[2,1-c][1,4]benzodiazepin-3-yl]-3-(dimethylamino)-2-propen-1-one]",43%
2,"CN(N)C(=O)c1ccc2n1Cc1ccccc1N(C(=O)c1ccc(C3CCCCC3)cc1)C2 [Example 21, 10-(4-Cyclohexyl-benzoyl)-N-methyl-10,11-dihydro-5H-pyrrolo[2,1-c][1,4]benzodiazepine-3-carboxylic acid hydrazide]",68%
3,"Cc1ccccc1N1CCN(C(=O)c2ccc3n2Cc2ccccc2N(C(=O)c2ccc(C4CCCCC4)cc2)C3)CC1 [Example 27, [10-(4-Cyclohexyl-benzoyl)-10,11-dihydro-5H-pyrrolo[2,1-c][1,4]benzodiazepin-3-yl][4-(2-methylphenyl)-1-piperazinyl]-methanone]",44%
4,"CN1CCCN(C(=O)c2ccc3n2Cc2ccccc2N(C(=O)c2ccc(C4CCCCC4)cc2)C3)CC1 [Example 30, [10-(4-Cyclohexyl-benzoyl)-10,11-dihydro-5H-pyrrolo[2,1-c][1,4]benzodiazepin-3-yl](4-methyl-[1,4]-diazepan-1-yl)-methanone]",94%
5,"CN(C)CCN(C)C(=O)c1ccc2n1Cc1ccccc1N(C(=O)c1ccc(C3CCCCC3)cc1)C2 [Example 34, 10-(4-Cyclohexyl-benzoyl)-N-[2-(dimethylamino)-ethyl]-N-methyl-10,11-dihydro-5H-pyrrolo[2,1-c][1,4]benzodiazepine-3-carboxamide]",-5%
6,"CN(C)CCCN(C)C(=O)c1ccc2n1Cc1ccccc1N(C(=O)c1ccc(C3CCCCC3)cc1)C2 [Example 35, 10-(4-Cyclohexyl-benzoyl)-N-[3-(dimethylamino)propyl]N-methyl-10,11-dihydro-5H-pyrrolo[2,1-c][1,4]benzodiazepine-3-carboxamide]",55%

# Results, then the molecule that gave them:
row,inhibition at 0.1 µM,SMILES
1,16%,"O=C(NNC(=O)c1ccc2n1Cc1ccccc1N(C(=O)c1ccc(C3CCCCC3)cc1)C2)Nc1ccccc1 [Example 15, 2-{[10-(4-Cyclohexyl-benzoyl)-10,11-dihydro-5H-pyrrolo[2,1-c][1,4]benzodiazepin-3-yl]carbonyl}-N-phenyl-1-hydrazinecarboxamide]"
2,42%,"COc1ccc(NC(=O)c2ccc3n2Cc2ccccc2N(C(=O)c2ccc(C4CCCCC4)cc2)C3)cc1 [Example 29, 10-(4-Cyclohexyl-benzoyl)-10,11-dihydro-5H-pyrrolo[2,1-c][1,4]benzodiazepine-3-carboxylic acid (4-methoxy-phenyl)-amide]"
3,66%,"CN(C)CCCNC(=O)c1ccc2n1Cc1ccccc1N(C(=O)c1ccc(C3CCCCC3)cc1)C2 [Example 33, 10-(4-Cyclohexyl-benzoyl)-N-[3-(dimethylamino)propyl]-10,11-dihydro-5H-pyrrolo[2,1-c][1,4]benzodiazepine-3-carboxamide]"

# Same assay, conditions: [3H]oxytocin, value in parentheses, read-out: OT (IC50)
row,SMILES,pIC50
1,"NC(=O)c1ccc2n1Cc1ccccc1N(C(=O)c1ccc(C3CCCCC3)cc1)C2 [Example 16, 10-(4-Cyclohexyl-benzoyl)-10,11-dihydro-5H-pyrrolo[2,1-c][1,4]benzodiazepin-3-carboxamide]",6.88
2,C/C(=N\C(=O)c1ccc2n1Cc1ccccc1N(C(=O)c1ccc(C3CCCCC3)cc1)C2)N(C)C [Example 18],8.36
3,"CN(C)NC(=O)c1ccc2n1Cc1ccccc1N(C(=O)c1ccc(C3CCCCC3)cc1)C2 [Example 19, 10-(4-Cyclohexyl-benzoyl)-N′-N′-dimethyl-10,11-dihydro-5H-pyrrolo[2,1-c][1,4]benzodiazepine-3-carbohydrazide]",6.89
4,"CN1CCN(C(=O)c2ccc3n2Cc2ccccc2N(C(=O)c2ccc(C4CCCCC4)cc2)C3)CC1 [Example 24, [10-(4-Cyclohexyl-benzoyl)-10,11-dihydro-5H-pyrrolo[2,1-c][1,4]benzodiazepin-3-yl](4-methyl-1-piperazinyl)-methanone]",7.74
5,"O=C(c1ccc2n1Cc1ccccc1N(C(=O)c1ccc(C3CCCCC3)cc1)C2)N1CCC(N2CCCCC2)CC1 [Example 26, [1,4′]Bipiperidinyl-1′-yl-[10-(4-cyclohexyl-benzoyl)-10,11-dihydro-5H-pyrrolo[2,1-c][1,4]benzodiazepin-3-yl]-methanone]",7.71

# The remaining lines, values ahead:
row,pIC50,SMILES
1,7.29,CN(C)/C=N/C(=O)c1ccc2n1Cc1ccccc1N(C(=O)c1ccc(C3CCCCC3)cc1)C2 [Example 17]
2,7.38,O=C(c1ccc2n1Cc1ccccc1N(C(=O)c1ccc(C3CCCCC3)cc1)C2)N1CCN(c2ncccn2)CC1 [Example 23]
3,7.88,"O=C(c1ccc2n1Cc1ccccc1N(C(=O)c1ccc(C3CCCCC3)cc1)C2)N1CCC(N2CCCC2)CC1 [Example 25, [10-(4-Cyclohexyl-benzoyl)-10,11-dihydro-5H-pyrrolo[2,1-c][1,4]benzodiazepin-3-yl][4-(1-pyrrolidinyl)-1-piperidinyl]methanone]"
4,6.95,"O=C(c1ccc2n1Cc1ccccc1N(C(=O)c1ccc(C3CCCCC3)cc1)C2)N1CCN(c2ccccn2)CC1 [Example 28, [10-(4-Cyclohexyl-benzoyl)-10,11-dihydro-5H-pyrrolo[2,1-c][1,4]benzodiazepine 3-yl][4-(2-pyridinyl)-1-piperazinyl]-methanone]"
